Common to all, as to type: in vivo
The test system of data set [1] is Arabidopsis thaliana (Col-0). The data set is described as follows: Evaluation Example 5: tolerance to excessive nutrient stress, leaf wilting. The note with it: for leaf wilting due to excessive nutrient stress, result in words: 0.5 mM; for Leaf wilting rate: test compound 0.5 mM (50 mL), excessive nutrient stress Yes (liquid fertilizer at 5-fold dilution), one day after stress; for Environmental stress suppressing rate: test compound 0.5 mM, excessive nutrient stress Yes. The protocol: (§1) EGT and GB were commercially available products, and pure water was used as a solvent.
One individual Arabidopsis thaliana (Col-0) was seeded in a plastic pot having a diameter of 60 mm and a height of 55 mm. Plastic deep dishes each having a diameter of 160 mm and a height of 28 mm were prepared, and four pots were respectively placed therein. As soil, 45 mL of vermiculite, 22.5 mL of granular soil (Kumiai horticultural soil), and 22.5 mL of vermiculite were placed in the pot in this order.
They were located in a growth chamber set at room temperature of 22° C., and the light period was 16 hours and the dark period was 8 hours. The light conditions were set such that the light intensity was 5000 lx in the central part under irradiation with the fluorescent lamp. Water supply was conducted from the bottom, and the water level was set at about 5 mm. On the 61st day after seeding, 50 mL of EGT or 50 mL of GB was added, and one day after that, a liquid fertilizer (HYPONeX, manufactured by Hyponex Japan Corp., Ltd.) was applied at a 5-fold dilution to give excessive nutrient stress.
The number of wilted leaves was evaluated one day after the excessive nutrient stress was applied. The leaf wilting rate and the environmental stress suppressing rate were calculated according to the following formulas.

Another data set has as its system radish (Akamaru Hatsuka). The experiment in a line: Evaluation Example 7: tolerance to drying stress, leaf mortality. The note with it: for Leaf mortality rate: test compound 0.5 mM (50 mL), water supply stopped 7 days twice; for Leaf mortality rate / Environmental stress suppressing rate: drying stress Yes; for Environmental stress suppressing rate: test compound 0.5 mM. The protocol:
EGT and GB were commercially available products, and pure water was used as a solvent. In a plastic pot having a diameter of 135 mm and a height of 110 mm, 1 kg of granular soil (Kumiai horticultural soil) was placed, and 5 individual radish (Akamaru Hatsuka) was seeded per pot. They were managed in a greenhouse set at room temperature of 25° C. EGT in an amount of 50 mL or GB in an amount of 50 mL was added on the 22nd day after seeding, and water supply was stopped for 7 days. After cultivation under water supply for 7 days, drying stress was applied by stopping water supply for 7 days again. The dead leaves of radish were counted after the drying stress was applied, and the leaf mortality rate was evaluated as an index of physiological disorder. The leaf mortality rate and the environmental stress suppressing rate were calculated according to the following formulas. [formula] [formula]

Data set [2] has as its system turf (Manila grass). The experiment in a line: Evaluation Example 11: tolerance to ultraviolet stress, leaf mortality. The note with it: for Environmental stress suppressing rate: ultraviolet stress Yes. As for the experimental part:
EGT (Examples 14 and 15, Comparative Examples 45 and 46) or GB (Comparative Examples 43, 44, 47 and 48) was prepared so as to have a concentration shown in Table 11 below. EGT and GB were commercially available products, and pure water was used as a solvent.
Turf (Manila grass) cut into a 50 mm square was placed on a petri dish and managed in a greenhouse at room temperature of 25° C. The plant height was trimmed to the length of 10 mm. 10 mL of EGT or 10 ml of GB was added per petri dish, and one day after that, ultraviolet stress was applied by exposure for one hour under irradiation with an ultraviolet lamp (GL-15, manufactured by Toshiba Corporation) with the intensity of ultraviolet radiation of a wavelength of 254 nm set to 525 μW/cm^−2.
Dead leaves were counted 7 days after the ultraviolet stress was applied, and the leaf mortality rate was evaluated as an index of physiological disorder. The leaf mortality rate and the environmental stress suppressing rate were calculated according to the following formulas.

The subject of data set [3] is turf (Manila grass). The data set is described as follows: Evaluation Example 8: tolerance to drying stress, leaf mortality. The note with it: for Leaf mortality rate: test compound 0.1 mM (12.5 mL), water supply stopped 7 days twice; for Leaf mortality rate / Environmental stress suppressing rate: drying stress Yes; for Environmental stress suppressing rate: test compound 0.1 mM. The protocol:
as §1
In a plastic pot having a diameter of 135 mm and a height of 110 mm, 1 L of a raising seedling culture soil (manufactured by Kanetaki Co., Ltd.) was placed, and 100 mm square of turf (Manila grass) was planted per pot.
They were managed in a greenhouse set at room temperature of 25° C. 12.5 mL of EGT or 12.5 mL of GB was added about one month after planting, and water supply was stopped for 7 days thereafter. After cultivation under water supply for 7 days, drying stress was applied by stopping water supply for 7 days again.
The dead leaves of turf to which the drying stress was applied were counted, and the leaf mortality rate was evaluated as an index of physiological disorder. The leaf mortality rate and the environmental stress suppressing rate were calculated according to the following formulas.

For another data set, the system named is cotton. The experiment in a line: Evaluation Example 3: tolerance to drying stress, leaf necrotizing. The note with it: for Leaf necrotizing rate: test compound 0.1 mM (50 mL), 4 days after stoppage of water; for Leaf necrotizing rate / Environmental stress suppressing rate: drying stress Yes; for Environmental stress suppressing rate: test compound 0.1 mM. As for the experimental part: as §1
In a plastic pot having a diameter of 60 mm and a height of 55 mm, 90 mL of granular soil (Kumiai horticultural soil) was placed, and one individual cotton (manufactured by TOHOKU SEED CO., LTD.) was seeded per pot.
They were managed in a greenhouse set at room temperature of 25° C. EGT in an amount of 50 mL or GB in an amount of 50 mL was added on the 23rd day after seeding, and drying stress was applied by stopping water supply for 4 days after 4 days from the addition of EGT or GB.
The leaves were collected 4 days after the stoppage of water and photographed with a digital camera. The photographed pictures of the leaves were analyzed with image analysis software WinROOF (manufactured by MITANI Corporation) to quantify the total leaf area and the green leaf area.
Using the above-described total leaf area and green leaf area, the leaf necrotizing rate after 4 days from the stoppage of water was evaluated. The leaf necrotizing rate and the environmental stress suppressing rate were calculated according to the following formulas.

In the next data set the test system is broccoli. The data set is described as follows: Evaluation Example 13: tolerance to freezing stress, plant mortality. Particulars: for Environmental stress suppressing rate: freezing stress Yes. As for the experimental part: EGT (Example 17, Comparative Example 55) or GB (Comparative Examples 54 and 56) was prepared so as to have the concentration shown in Table 13 below. EGT and GB were commercially available products, and pure water was used as a solvent.
5 mL of pure water was added to 9-cm petri dishes on which filter paper was placed, and 10 broccoli seeds were seeded per petri dish. They were located in a growth chamber set at room temperature of 22° C., and the light period was 16 hours and the dark period was 8 hours. The light conditions were set such that the light intensity was 5000 lx in the central part under irradiation with the fluorescent lamp.
On the 6th day after seeding, pure water in the petri dish was removed, and then, 5 mL of EGT or 5 mL of GB was added to the petri dish, and freezing stress was applied by, 14 days after the addition, a first exposure to an environment of −20° C. for 20 minutes, and, 1 day after the first exposure, a second exposure to an environment of −20° C. for 20 minutes.
The surviving plants were counted 24 hours after the freezing stress was applied, and the mortality rate of the plants was evaluated as an index of physiological disorder. The mortality rate and the environmental stress suppressing rate were calculated according to the following formulas.

[4] abbreviates: test compound 0.1 mM (10 mL), ultraviolet stress Yes (254 nm, one hour), 7 days after stress.
The mark [5] stands for this setting: test compound 0.1 mM, ultraviolet stress No.
The mark [6] stands for this setting: test compound 1 mM (10 mL), ultraviolet stress Yes (254 nm, one hour), 7 days after stress.
Setting [7] is: test compound 1 mM, ultraviolet stress No.
Setting [8] is: test compound 0.1 mM (5 mL), freezing stress Yes (−20° C. for 20 minutes, twice), 24 hours after stress.
The mark [9] stands for this setting: test compound 0.1 mM, freezing stress No.

`C[N+](C)(C)CC(=O)[O-]` [GB, glycine betaine, reference compound]: the “leaf wilting due to excessive nutrient stress, result in words” value in data set [1] is given as “hardly suppressed”. This compound also came in with a Leaf wilting rate in data set [1] of 89%. Moreover, the “Environmental stress suppressing rate” value was determined as 11% in data set [1]; 0% in the data set on radish (Akamaru Hatsuka); 14% with turf (Manila grass) [2] (test compound 0.1 mM); 6% in the data set on turf (Manila grass) [2] (test compound 1 mM); 0% in the data set on turf (Manila grass) [3]; 0% with cotton. For the same compound, in the data set with broccoli (test compound 0.1 mM), the “Environmental stress suppressing rate” value was determined as 0%. Moreover, the “mortality rate due to drying stress, result in words” value is “not suppressed” in the data set with radish (Akamaru Hatsuka) (0.5 mM, drying stress) and “not suppressed” with turf (Manila grass) [3] (0.1 mM, drying stress). Moreover, the Leaf mortality rate in the data set on radish (Akamaru Hatsuka) is on record as 73%; in the data set on turf (Manila grass) [2] (setting [4]), 54%; in the data set on turf (Manila grass) [2] (setting [5]) it was 2%; in the data set on turf (Manila grass) [2] (setting [6]) it was 59%; in the data set with turf (Manila grass) [2] (setting [7]) it was 0%; in the data set on turf (Manila grass) [3], 100%. The “mortality rate due to ultraviolet stress, result in words” value with turf (Manila grass) [2] (GB 1 mM and 0.1 mM, ultraviolet stress) is given as “hardly suppressed”. Also, the “necrotizing due to drying stress, result in words” value with cotton (0.1 mM, drying stress) is reported as “not suppressed”. In addition, the Leaf necrotizing rate in the data set on cotton is 68%. The “mortality rate due to freezing stress, result in words” value in the data set with broccoli (0.1 mM, freezing stress) is “not suppressed”. Moreover, the Mortality rate in the data set with broccoli (setting [8]) is listed as 100%; in the data set on broccoli (setting [9]), 0%.

On to `C[N+](C)(C)[C@@H](Cc1c[nH]c(=S)[nH]1)C(=O)[O-]` [EGT, L-(+)-ergothioneine], for which, in data set [1], the “leaf wilting due to excessive nutrient stress, result in words” value was “suppressed”. In addition, in data set [1], the Leaf wilting rate is given as 24%. The “Environmental stress suppressing rate” value is reported as 76% in data set [1]; 71% in the data set with radish (Akamaru Hatsuka); 79% in the data set with turf (Manila grass) [2] (test compound 0.1 mM); 90% with turf (Manila grass) [2] (test compound 1 mM); 65% in the data set with turf (Manila grass) [3]; 50% in the data set with cotton. For the same compound, the “Environmental stress suppressing rate” value in the data set on broccoli (test compound 0.1 mM) is reported as 56%. The Leaf mortality rate in the data set with radish (Akamaru Hatsuka) turned out to be 17%; in the data set on turf (Manila grass) [2] (setting [4]), 13%; in the data set on turf (Manila grass) [2] (setting [5]), 2%; in the data set on turf (Manila grass) [2] (setting [6]), 6%; in the data set on turf (Manila grass) [2] (setting [7]) it was 0%; in the data set on turf (Manila grass) [3], 35%. This compound showed a Leaf necrotizing rate with cotton of 26%. Further, the figures for the Mortality rate with broccoli (setting [8]) and in the data set with broccoli (setting [9]) were 38% and 0%, respectively.

For the origin of these results see patent US20260101897A1, “PLANT ENVIRONMENTAL STRESS TOLERANCE IMPROVEMENT AGENT AND ENVIRONMENTAL STRESS TOLERANCE IMPROVEMENT METHOD” (priority 2022, published 2026).
